Our source for the Kd1, Ka and ΔTm values is article PMC7155420 (2020).

For assay [1], the system named is r(CGGx6); GGx6 (RNA, repeat) GGAGAGGGUUUAAUCGGCGGCGGCGGCGGCGGUACGAAAGUACGGCGGCGGCGGCGGCGGAUUGGAUCCGCAAGG
Kind of assay: fluorescence titration (curcumin fluorescence), two-mode fit. Conditions: 50 mM KCl (general buffer); 10 mM phosphate, pH 7.0, 25 °C; stronger of two sites.

The test system is the same in assay [2]. Kind of assay: ITC, two-mode fit. Conditions: K+ (10 mM potassium phosphate); 298 K; highest-affinity site. (In general: ITC needs no label: the signal is the heat of the interaction.)
Assay [3] relates to r(CGGx1); GGx1; (5'CGG/3'GCC) x 1 in Table S1 (RNA, mismatch bulge abasic) GGAGAGGGUUUAAUCGGUACGAAAGUACGGAUUGGAUCCGCAAGG
Kind of assay: CD melting, 267 nm. The settings on record: K+ (50 mM KCl, 10 mM potassium phosphate); 10 µM RNA; drug/nucleic acid ratio up to 2.0; 1 °C/min; per base.

In assay [4] the test system is r(CGGx6); GGx6 (RNA, repeat) GGAGAGGGUUUAAUCGGCGGCGGCGGCGGCGGUACGAAAGUACGGCGGCGGCGGCGGCGGAUUGGAUCCGCAAGG
Description: CD melting, 267 nm. Conditions: K+ (50 mM KCl, 10 mM potassium phosphate); 10 µM RNA; drug/nucleic acid ratio up to 2.0; 1 °C/min; per base.

Assay [5] has as its system r(CGGx1); GGx1; (5'CGG/3'GCC) x 1 in Table S1 (RNA, mismatch bulge abasic) GGAGAGGGUUUAAUCGGUACGAAAGUACGGAUUGGAUCCGCAAGG
Kind of assay: fluorescence titration (curcumin fluorescence), two-mode fit. Conditions: 50 mM KCl (general buffer); 10 mM phosphate, pH 7.0, 25 °C; stronger of two sites.

Turning to `COc1cc(/C=C/C(=O)CC(=O)/C=C/c2ccc(O)c(OC)c2)ccc1O`, the Kd1 in assay [1] came out at 0.092 ± 0.004 µM; in assay [5] it was 0.12 ± 0.02 µM. The Ka in assay [2] is reported as 1.7 × 10^6 M^–1. Moreover, the ΔTm (as a rule, the shift of the melting midpoint relative to a reference) in assay [3] came to 1.49 °C; in assay [4] it was 3.48 °C.
